Test results published in patent US6599499B1, “Uses of diterpenoid triepoxides as an anti-proliferative agent” (priority 1999, dated 2003).

Legend:
[1] = test system: p53-binding site in the mdm2 promoter; test: mdm2 promoter-luciferase reporter (pBP100-GL2) in MCF-7 cells; type: cell-based, human
Description: Reagents. PG490 (triptolide, MW 360) was obtained from Pharmagenesis (Palo Alto, Calif.). A549 (non-small cell lung cancer) and HT1080 (fibrosarcoma) cell lines were from ATCC. MCF-7 (breast cancer) cell line was obtained from Dr. Ron Weigel (Stanford University). Mouse embryonic fibroblasts (p53+/+ and p53−/−) cell lines were provided by Dr. Amato J. Giaccia (Stanford University). […] The mdm2 promoter-luciferase construct pBP100-GL2 was provided by Dr.
Louis Noumovski (Stanford University) and was made by cloning the Bgl II-Hind III fragment from the pBP100CAT vector into the pGL2-Basic Vector (Promega, Madison, Wis.). MCF-7 cells were transfected using lipofectamine Plus reagent from the Life Technologies, Inc. Cells were collected and lysates were prepared according to the manufacturer's protocol for luciferase assay (Promega Corp., Madison, Wis.). Antibodies for p53, p21^WAF1/CIP1, Mdm2, Protein phosphatase-1 (PP-1), and Erk-2 were from Calbiochem, Inc (La Jolla, Calif.) and the rabbit polyclonal Bax antibody was from Upstate Biotechnology (Lake Placid, N.Y.).
(§1) Cell culture and luciferase assay.
In the experiments shown in FIG. 5, RT-PCR was performed using 2 μg of total RNAs extracted from MCF-7 cells. […] GADPH was used as a loading control. […]

Mdm2 = Mdm2 mRNA (RT-PCR) and protein (immunoblot) in MCF-7 cells; type: cell-based, human
Procedure: RT-PCR. RNA was prepared from MCF-7 cells using Rneasy Mini Kit from Qiagen Inc. (Valencia, Calif.). cDNAs were prepared using M-MLV reverse transcriptase (Gibco) with 2 μg of total RNA. 1/20 of total cDNA was used in limited (25 cycles) PCR reactions using Taq polymerase (Gibco). The following primer pairs were used: p53 [SEQ ID NO:1] 5′-[…]-3′ and 5′-[SEQ ID NO:2] TCTTCUTXGGCTGGGGAGAG-3′, mdm2, [SEQ ID NO:3] 5′-[…]-3′ and [SEQ ID NO:4] 5′-[…]-3′, p21, [SEQ ID NO:5] 5′-[…]-3′ and [SEQ ID NO:6] 5′-[…]-3′, and glyceraldehyde-3-phosphate dehydrogenase (GAPDH)- [SEQ ID NO:7] 5′-[…]-3′ and [SEQ ID NO:8] 5′-[…]-3′.
(§2) Immunoblotting. At 8 hours after triptolide and/or doxorubicin treatment cells were harvested at the times indicated and lysed using HNET buffer (50 mM HEPES pH 7.5, 100 mM NaCl, 1 mM EGTA, and 1% Triton X-100) supplemented with 1 mM DTT, 1 mM PMSF and protease inhibitors cocktail (Boehringer Mannheim, Germany). 35 μg of protein was loaded on 10% SDS-PAGE followed by transferring to PVDF membrane. Immunoblotting was performed as previously described using a p53 mouse monoclonal antibody from Oncogene Research Products (Lee et al. (1999) J Biol Chem 274:13451-5).
In the experiments shown in FIG. 5, RT-PCR was performed using 2 μg of total RNAs extracted from MCF-7 cells. […] GADPH was used as a loading control. The plasmid pBP100-GL2 which contains a p53-binding site in the mdm2 promoter was transiently transfected into MCF-7 cells, and cellular lysates were used for the luciferase assay.

p53 = p53 protein level by immunoblotting (Example 2); type: cell-based, human; conditions: for increase in p53 protein: MCF-7 cells
Procedure: as §2

p21 = p21 protein level by immunoblotting (Example 5); type: cell-based, human; conditions: for effect on p21 expression: p53 mutant HT29 colon cancer cell line
Procedure: Immunoblotting. Cells were harvested at the conditions and times indicated and lysed using HNET buffer (50 mM HEPES, pH 7.5, 100 mM NaCl, 1 mM EGTA, and 1% Triton X-100) supplemented with 1 mM dithiothreitol, 1 mM phenylmethylsulfonyl fluoride, and protease inhibitors mixture (Roche Molecular Biochemicals). 100 μg of protein was loaded on 10% SDS-PAGE followed by transferring to polyvinylidene difluoride membrane. Immunoblotting was performed as described previously using a p53 mouse monoclonal antibody from Oncogene Research Products. […] Immunoblot analysis using other antibodies was performed as described above. The band intensity was measured by NIH Image 1.62.

p53 wild-type (+/+) MEFs = test: Cell viability of p53+/+ mouse embryonic fibroblasts; type: cell-based
Description: as §1
Functional p53 enhances triptolide-induced cell death.

HT1080 cells = test: Cell cycle analysis by propidium iodide/FACS, HT1080 cells; type: cell-based, human; conditions: 16 h
Procedure: Cell Cycle Analysis. HT1080 cells ([…]) were treated with triptolide (20 ng/ml) and/or doxorubicin (100 nM) for 16 h. Cells were then harvested and washed with cold PBS. The cells were resuspended gently in 5 ml of 100% ethanol and fixed at 25° C. for 1 h. After washing with PBS, the cells were incubated with DNase-free RNase A (200 μg/ml) at 37 ° C. for 1 h and washed with PBS. Propidium iodide (10 μg/ml) was added, and the cells were incubated at 37° C. for 5 min. Cells were separated by sonicating at 20% output level for 15 s using a VirSonic 50 sonicator (Vitis Inc., NY). The samples were then sorted by FACS, and cell cycle analysis was done with FlowJo (version 3.0.3) (Tree Start, Inc, San Carlos, Calif.).

[2] = test system: Dx5 MDR human tumor cells; test: Nude mouse xenograft, established Dx5 MDR tumors; type: in vivo, nude mice
Procedure: Nude mouse xenograft model. Female NCr nude mice were purchased from Taconic, Germantown, N.Y., and were generally 20-24 grams when used. Mice were kept in autoclaved filter-top microisolator cages with autoclaved water and sterile food ad lib. The cages were maintained in an isolator unit providing filtered air (Lab Products, Inc., Maywood, N.J.). Tumor cells were grown and harvested as described above. NCr nude mice were injected intradermally with 5×10^6 tumor cells. In some experiments, treatment was initiated on the day of tumor cell implantation. […] Mice were treated IP daily for 5 days per week.
MDR is a factor in failing to achieve durable chemotherapeutic efficacy in the clinical setting. Using an MDR tumor cell line Dx5 the efficacy of PG490-88 was tested. Nude mice were implanted intradermally with Dx5 tumor cells, and treatment was initiated when the tumors reached approximately 100 mm^3.
The data in FIG. 4 represents the measurement of Dx5 tumor volume on day 14 after the initiation of treatment. Nude mice bearing xenografts of Dx5 MDR human tumor cells were treated daily as shown. The data represent the means and the standard errors of the means of the tumor volumes as percent of the day 0 tumor volumes for each animal measured day 3, 7, 10 and 14 days after the initiation of treatment. There were 5 mice in the groups receiving saline or PG490-88 plus doxorubicin, and 4 mice in the groups receiving PG490-88 or doxorubicin alone.

[3] = Mus musculus, Fibroblast, read-out: reduction of cell viability

CC(C)[C@]12O[C@H]1[C@@H]1O[C@]13[C@]1(O[C@H]1C[C@H]1C4=C(CC[C@@]13C)C(=O)OC4)[C@@H]2O [PG490, triptolide]
decrease of transactivation of the reporter construct ([1]; MCF-7, triptolide 20 ng/ml): approximately 30% | change in levels of the Mdm2 protein (Mdm2; MCF-7, triptolide 5 ng/ml, 8 or 24 hours): no significant change | increase in Mdm2 protein (Mdm2; MCF-7, triptolide 20 ng/ml, 8 h): approximately 1.5 fold | Mdm2 protein (Mdm2; MCF-7, triptolide 20 ng/ml, 24 h): almost a complete loss | mdm2 mRNA (Mdm2; cells treated with triptolide): time-dependent decrease | increase in p53 steady state protein levels (p53; MCF-7 and A549 cells, dose- and time-dependent): 2-4 fold | increase in p53 protein (p53): greater than 4 fold | reduction of basal p21 levels (p21; HT1080, triptolide 20 ng/ml): 50% | effect on CPT-11-mediated induction of p21 (p21; HT1080 and A549 cells): inhibits | effect on p21 expression (p21): did not affect | reduction of doxorubicin-mediated induction of p53 (p21; triptolide 5 ng/ml): 58% | effect on doxorubicin-induced increase in p21 (p21; triptolide 20 ng/ml): completely blocked | cytotoxicity at 0.005 µg/mL (p53 wild-type (+/+) MEFs; [3]): 48% | cytotoxicity at 0.01 µg/mL (p53 wild-type (+/+) MEFs; [3]): 73% | cells in S phase (HT1080 cells; HT1080, triptolide 20 ng/ml, 23.7% in unstimulated cells): 46%

CC(C)[C@]12O[C@H]1[C@@H]1O[C@]13[C@]1(O[C@H]1C[C@H]1C4=C(CC[C@@]13C)C(=O)OC4)[C@@H]2OC(=O)CCC(=O)[O-].[Na+] [PG490-88, 14-succinyl triptolide sodium salt]
growth of one tumor compared with its day 0 value ([2]; PG490-88 0.75 mg/kg/day, one of four mice): 2.8 fold | reduction of mean tumor size compared to day 0 values ([2]; PG490-88 0.75 mg/kg/day, three of the four mice): 28%

COc1cccc2c1C(=O)c1c(O)c3c(c(O)c1C2=O)C[C@@](O)(C(=O)CO)C[C@@H]3O[C@H]1C[C@H](N)[C@H](O)[C@H](C)O1 [doxorubicin, reference compound]
increase of mean tumor volume over 14 days ([2]; doxorubicin alone 2 mg/kg/day): more than 10 fold | increase of transactivation of the Mdm2 reporter ([1]; MCF-7, doxorubicin 100 nM, by 16 h): 15% | increase in the Mdm2 mRNA and protein (Mdm2; MCF-7 cells, doxorubicin 100 nM): 1.5-2 fold | increase in p53 protein (p53): 2 fold | increase in p21 (p21; HT1080, doxorubicin): 14.5 fold | effect on p21 expression (p21): did not affect | more cell death in MEF cells with wild-type p53 than in those without functional p53 (p53 wild-type (+/+) MEFs): 35% | cells in G2/M (HT1080 cells; HT1080, doxorubicin 100 nM alone or with triptolide 20 ng/ml, 11% without treatment): 49.8%
